The source made the active and inactive calls. No cut-off for these calls is given here.

We go through four molecules from ChEMBL document CHEMBL1126377, “Synthesis of 9-[2-(phosphonomethoxy)ethylamino]adenine and 9-[(phosphonomethoxy)acetamido]adenine, analogues of a potent anti-HIV acyclonucleotide” (Bioorg Med Chem Lett, 1992).

Format in all cases: functional, organism-based
In assay [1] the test system is Human alphaherpesvirus 2. Kind of assay: Effect on replication of herpes simplex virus type 2 at a concentration of 300 uM; NE=No effect.
Assay [2] has as its system Human immunodeficiency virus 1. Kind of assay: Inhibition of the replication of human immunodeficiency virus (HIV) at 10 uM concentration; NE=No effect.
Assay [3] has as its system Human alphaherpesvirus 1. Kind of assay: Effect on replication of herpes simplex virus type 1 at a concentration of 300 uM; NE=No effect.
For assay [4], the system named is Human alphaherpesvirus 3. Put plainly: Effect on replication of varicella zoster virus at a concentration of 300 uM; NE=No effect.
The subject of assay [5] is Cytomegalovirus. Kind of assay: Effect on replication of cytomegalovirus at a concentration of 300 uM; NE=No effect.
Assay [6] relates to Human immunodeficiency virus 1. Put plainly: Inhibition of the replication of human immunodeficiency virus (HIV) at 10 uM concentration.

On to `Nc1ncnc2c1ncn2NC(=O)COCP(=O)(O)O`, for which the outcome in assay [1], in assay [2], in assay [3], in assay [4] and in assay [5] was inactive.

For the molecule `Nc1ncnc2c1ncn2NCCOCP(=O)(O)O`, the outcome in assay [1], in assay [2], in assay [3], in assay [4] and in assay [5] was inactive.

Regarding `Nc1ncnc2c1ncn2OCCOCP(=O)(O)O`, the IC50 in assay [6] turned out to be 0.3 µM.

`Nc1ncnc2c1ncn2OCC/C=C/P(=O)(O)O` gave an IC50 in assay [6] of 10 µM.

As a reminder, the IC50 is the concentration that gives 50% inhibition.
